Patent US20230340011A1 (Asteroid Therapeutics, priority 2022, published 2023)

Assays:
LXRβ = LXRβ (Homo sapiens (Human), UniProt P55055); test: In vitro assay LXRβ: PathHunter NHR CHO cells, LXRβ / Steroid Receptor Co-activator Peptide enzyme fragment complementation; type: cell-based; conditions: PathHunter NHR CHO cells, full-length human LXRβ and SRCP, chemiluminescent signal; read-out: LXRβ PPI
How it was run: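 Co-activator recruitment measured by chemiluminescence after signal generation. The CHO line carries full-length human LXRβ tagged with ProLink and an SRCP–enzyme acceptor fusion in the nucleus; cells sat overnight at 37° C before testing, in charcoal-dextran filtered serum medium with 1% final vehicle.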

SREBP-2 = SREBP-2 (Homo sapiens (Human), UniProt Q12772); test: In vitro assay SREBP-2: PathHunter U2OS SREBP-2 Nuclear Translocation Cell Line, U18666A-stimulated; type: cell-based; conditions: PathHunter U2OS SREBP-2 nuclear translocation cells, U18666A 10 μM, overnight (16 hours)

LXRβ, sequence (P55055 whole entry, the tested form may be a part): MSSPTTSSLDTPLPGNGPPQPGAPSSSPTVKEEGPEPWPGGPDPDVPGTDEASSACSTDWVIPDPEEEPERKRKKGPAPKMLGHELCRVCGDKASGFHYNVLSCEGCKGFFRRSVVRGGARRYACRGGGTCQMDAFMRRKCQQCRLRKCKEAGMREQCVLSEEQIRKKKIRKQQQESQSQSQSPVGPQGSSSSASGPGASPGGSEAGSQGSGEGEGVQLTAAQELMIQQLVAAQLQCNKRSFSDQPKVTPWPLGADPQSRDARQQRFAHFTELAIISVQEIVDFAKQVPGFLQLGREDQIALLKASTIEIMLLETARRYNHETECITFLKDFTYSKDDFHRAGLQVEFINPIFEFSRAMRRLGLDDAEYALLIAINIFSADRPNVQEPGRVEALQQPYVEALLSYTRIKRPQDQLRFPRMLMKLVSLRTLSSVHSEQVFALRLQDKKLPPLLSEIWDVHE

`COc1cccnc1C1CCN(C(=O)CC[C@@H](C)[C@H]2CC[C@H]3[C@@H]4CC=C5C[C@@H](O)CC[C@]5(C)[C@H]4CC[C@]23C)CC1` [Example 622, (R)-4-((3S,8S,9S,10R,13R,14S,17R)-3-hydroxy-10,13-dimethyl-2,3,4,7,8,9,10,11,12,13,14,15,16,17-tetradecahydro-1H-cyclopenta[a]phenanthren-17-yl)-1-(4-(3-methoxypyridin-2-yl)piperidin-1-yl)pentan-1-one] was tested, and the EC50 (LXRβ) was > 10000 nM and the IC50 (SREBP-2) was < 250 nM.

In the case of `C[C@H](CCC(=O)N1CCC(C)(CNC(=O)C(C)(C)O)CC1)[C@H]1CC[C@H]2[C@@H]3CC=C4C[C@@H](O)CC[C@]4(C)[C@H]3CC[C@]12C` [Example 365, 2-hydroxy-N-((1-((R)-4-((3S,8S,9S,10R,13R,14S,17R)-3-hydroxy-10,13-dimethyl-2,3,4,7,8,9,10,11,12,13,14,15,16,17-tetradecahydro-1H-cyclopenta[a]phenanthren-17-yl)pentanoyl)-4-methylpiperidin-4-yl)methyl)-2-methylpropanamide], the EC50 (LXRβ) is reported as > 10000 nM and the IC50 (SREBP-2) is reported as < 250 nM.

For `COC([C@@H]1CCN(C(=O)CC[C@@H](C)[C@H]2CC[C@H]3[C@@H]4CC=C5C[C@@H](O)CC[C@]5(C)[C@H]4CC[C@]23C)C1)(C(F)(F)F)C(F)(F)F` [Example 331, (4R)-4-[(1R,3aS,3bS,7S,9aR,9bS,11aR)-7-hydroxy-9a,11a-dimethyl-1H,2H,3H,3aH,3bH,4H,6H,7H,8H,9H,9aH,9bH,10H,11H,11aH-cyclopenta[a]phenanthren-1-yl]-1-[(3R)-3-(1,1,1,3,3,3-hexafluoro-2-methoxypropan-2-yl)pyrrolidin-1-yl]pentan-1-one], the EC50 (LXRβ) was > 10000 nM and the IC50 (SREBP-2) was < 250 nM.

In the case of `C[C@H](CCC(=O)N1CC2(C1)CC(C)(O)C2)[C@H]1CC[C@H]2[C@@H]3CC=C4C[C@@H](O)CC[C@]4(C)[C@H]3CC[C@]12C` [Example 101, (R)-4-((3S,8S,9S,10R,13R,14S,17R)-3-hydroxy-10,13-dimethyl-2,3,4,7,8,9,10,11,12,13,14,15,16,17-tetradecahydro-1H-cyclopenta[a]phenanthren-17-yl)-1-(6-hydroxy-6-methyl-2-azaspiro[3.3]heptan-2-yl)pentan-1-one], the EC50 (LXRβ) is reported as > 10000 nM and the IC50 (SREBP-2) is reported as < 250 nM.

In the case of `C[C@H](CCc1cnccn1)[C@H]1CC[C@H]2[C@@H]3CC=C4C[C@@H](O)CC[C@]4(C)[C@H]3CC[C@]12C` [Example 136, (3S,8S,9S,10R,13R,14S,17R)-10,13-dimethyl-17-((R)-4-(pyrazin-2-yl)butan-2-yl)-2,3,4,7,8,9,10,11,12,13,14,15,16,17-tetradecahydro-1H-cyclopenta[a]phenanthren-3-ol], the EC50 (LXRβ) is reported as 250 to 1000 nM and the IC50 (SREBP-2) is reported as < 250 nM.

`C[C@H](CCC(=O)N1CCN(c2cc(N)ncn2)CC1)[C@H]1CC[C@H]2[C@@H]3CC=C4C[C@@H](O)CC[C@]4(C)[C@H]3CC[C@]12C` [Example 633, (R)-1-(4-(6-aminopyrimidin-4-yl)piperazin-1-yl)-4-((3S,8S,9S,10R,13R,14S,17R)-3-hydroxy-10,13-dimethyl-2,3,4,7,8,9,10,11,12,13,14,15,16,17-tetradecahydro-1H-cyclopenta[a]phenanthren-17-yl)pentan-1-one] was tested, and the EC50 (LXRβ) was > 10000 nM and the IC50 (SREBP-2) was < 250 nM.

`C[C@H](COc1ccccn1)[C@H]1CC[C@H]2[C@@H]3CC=C4C[C@@H](O)CC[C@]4(C)[C@H]3CC[C@]12C` [Example 179, (3S,8S,9S,10R,13S,14S,17R)-10,13-dimethyl-17-((S)-1-(pyridin-2-yloxy)propan-2-yl)-2,3,4,7,8,9,10,11,12,13,14,15,16,17-tetradecahydro-1H-cyclopenta[a]phenanthren-3-ol] was tested, and the EC50 (LXRβ) was > 10000 nM and the IC50 (SREBP-2) was < 250 nM.

With `CCOc1cccnc1CC[C@@H](C)[C@H]1CC[C@H]2[C@@H]3CC=C4C[C@@H](O)CC[C@]4(C)[C@H]3CC[C@]12C` [Example 247, (1R,3aS,3bS,7S,9aR,9bS,11aR)-1-[(2R)-4-(3-ethoxypyridin-2-yl)butan-2-yl]-9a,11a-dimethyl-1H,2H,3H,3aH,3bH,4H,6H,7H,8H,9H,9aH,9bH,10H,11H,11aH-cyclopenta[a]phenanthren-7-ol] the EC50 (LXRβ) was 250 to 1000 nM and the IC50 (SREBP-2) was < 250 nM.

For `CON(CC(=O)O)C(=O)CC[C@@H](C)[C@H]1CC[C@H]2[C@@H]3CC=C4C[C@@H](O)CC[C@]4(C)[C@H]3CC[C@]12C` [Example 63, N—((R)-4-((3S,8S,9S,10R,13R,14S,17R)-3-hydroxy-10,13-dimethyl-2,3,4,7,8,9,10,11,12,13,14,15,16,17-tetradecahydro-1H-cyclopenta[a]phenanthren-17-yl)pentanoyl)-N-methoxyglycine], the EC50 (LXRβ) was 250 to 1000 nM and the IC50 (SREBP-2) was > 10000 nM.

In the case of `Cc1ccnc(CC[C@@H](C)[C@H]2CC[C@H]3[C@@H]4CC=C5C[C@@H](O)CC[C@]5(C)[C@H]4CC[C@]23C)n1` [Example 191, (3S,8S,9S,10R,13R,14S,17R)-10,13-dimethyl-17-((R)-4-(4-methylpyrimidin-2-yl)butan-2-yl)-2,3,4,7,8,9,10,11,12,13,14,15,16,17-tetradecahydro-1H-cyclopenta[a]phenanthren-3-ol], the EC50 (LXRβ) is reported as 250 to 1000 nM and the IC50 (SREBP-2) is reported as < 250 nM.

`C[C@H](CCC(=O)N1CCN(C(=O)c2cn(C)cn2)CC1)[C@H]1CC[C@H]2[C@@H]3CC=C4C[C@@H](O)CC[C@]4(C)[C@H]3CC[C@]12C` [Example 538, (4R)-4-[(1R,3aS,3bS,7S,9aR,9bS,11aR)-7-hydroxy-9a,11a-dimethyl-1H,2H,3H,3aH,3bH,4H,6H,7H,8H,9H,9aH,9bH,10H,11H,11aH-cyclopenta[a]phenanthren-1-yl]-1-[4-(1-methyl-1H-imidazole-4-carbonyl)piperazin-1-yl]pentan-1-one] was tested, and the EC50 (LXRβ) was > 10000 nM and the IC50 (SREBP-2) was < 250 nM.

For `C[C@H](Oc1cccnc1)[C@H]1CC[C@H]2[C@@H]3CC=C4C[C@@H](O)CC[C@]4(C)[C@H]3CC[C@]12C` [Example 380, (3S,8S,9S,10R,13S,14S,17S)-10,13-dimethyl-17-((S)-1-(pyridin-3-yloxy)ethyl)-2,3,4,7,8,9,10,11,12,13,14,15,16,17-tetradecahydro-1H-cyclopenta[a]phenanthren-3-ol], the EC50 (LXRβ) was > 10000 nM and the IC50 (SREBP-2) was < 250 nM.

`Cc1cncc(N2CCN(C(=O)CC[C@@H](C)[C@H]3CC[C@H]4[C@@H]5CC=C6C[C@@H](O)CC[C@]6(C)[C@H]5CC[C@]34C)CC2)c1` [Example 661, (R)-4-((3S,8S,9S,10R,13R,14S,17R)-3-hydroxy-10,13-dimethyl-2,3,4,7,8,9,10,11,12,13,14,15,16,17-tetradecahydro-1H-cyclopenta[a]phenanthren-17-yl)-1-(4-(5-methylpyridin-3-yl)piperazin-1-yl)pentan-1-one] was tested, and the EC50 (LXRβ) was > 10000 nM and the IC50 (SREBP-2) was < 250 nM.

For `C[C@H](CCC(=O)N1CCC2(CC1)COC2)[C@H]1CC[C@H]2[C@@H]3CC=C4C[C@@H](O)CC[C@]4(C)[C@H]3CC[C@]12C` [Example 80, (R)-4-((3S,8S,9S,10R,13R,14S,17R)-3-hydroxy-10,13-dimethyl-2,3,4,7,8,9,10,11,12,13,14,15,16,17-tetradecahydro-1H-cyclopenta[a]phenanthren-17-yl)-1-(2-oxa-7-azaspiro[3.5]nonan-7-yl)pentan-1-one], the EC50 (LXRβ) was 1000 to 10000 nM and the IC50 (SREBP-2) was < 250 nM.

In the case of `C[C@H](CCC(=O)N1CCN(C(=O)NC2CC2)CC1)[C@H]1CC[C@H]2[C@@H]3CC=C4C[C@@H](O)CC[C@]4(C)[C@H]3CC[C@]12C` [Example 338, 4-[(4R)-4-[(1R,3aS,3bS,7S,9aR,9bS,11aR)-7-hydroxy-9a,11a-dimethyl-1H,2H,3H,3aH,3bH,4H,6H,7H,8H,9H,9aH,9bH,10H,11H,11aH-cyclopenta[a]phenanthren-1-yl]pentanoyl]-N-cyclopropylpiperazine-1-carboxamide], the EC50 (LXRβ) is reported as > 10000 nM and the IC50 (SREBP-2) is reported as < 250 nM.

In the case of `C[C@H](CCC(=O)N1CCN(c2ccncc2)[C@@H](C)C1)[C@H]1CC[C@H]2[C@@H]3CC=C4C[C@@H](O)CC[C@]4(C)[C@H]3CC[C@]12C` [Example 567, (R)-4-((3S,8S,9S,10R,13R,14S,17R)-3-hydroxy-10,13-dimethyl-2,3,4,7,8,9,10,11,12,13,14,15,16,17-tetradecahydro-1H-cyclopenta[a]phenanthren-17-yl)-1-((S)-3-methyl-4-(pyridin-4-yl)piperazin-1-yl)pentan-1-one], the EC50 (LXRβ) is reported as > 10000 nM and the IC50 (SREBP-2) is reported as < 250 nM.

With `C[C@H](CCC(=O)N1CCN(C(=O)c2nnn(C)n2)CC1)[C@H]1CC[C@H]2[C@@H]3CC=C4C[C@@H](O)CC[C@]4(C)[C@H]3CC[C@]12C` [Example 342, (R)-4-((3S,8S,9S,10R,13R,14S,17R)-3-hydroxy-10,13-dimethyl-2,3,4,7,8,9,10,11,12,13,14,15,16,17-tetradecahydro-1H-cyclopenta[a]phenanthren-17-yl)-1-(4-(2-methyl-2H-tetrazole-5-carbonyl)piperazin-1-yl)pentan-1-one] the EC50 (LXRβ) was > 10000 nM and the IC50 (SREBP-2) was < 250 nM.

With `CCC1(O)CCN(C(=O)CC[C@@H](C)[C@H]2CC[C@H]3[C@@H]4CC=C5C[C@@H](O)C[C@H](O)[C@]5(C)[C@H]4CC[C@]23C)CC1` [Example 156, (R)-4-((1S,3R,8S,9S,10R,13R,14S,17R)-1,3-dihydroxy-10,13-dimethyl-2,3,4,7,8,9,10,11,12,13,14,15,16,17-tetradecahydro-1H-cyclopenta[a]phenanthren-17-yl)-1-(4-ethyl-4-hydroxypiperidin-1-yl)pentan-1-one] the EC50 (LXRβ) was < 250 nM and the IC50 (SREBP-2) was > 10000 nM.

In the case of `C[C@H](CCC(=O)N1CC(C)(CO)C1)[C@H]1CC[C@H]2[C@@H]3CC=C4C[C@@H](O)CC[C@]4(C)[C@H]3CC[C@]12C` [Example 555, (R)-4-((3S,8S,9S,10R,13R,14S,17R)-3-hydroxy-10,13-dimethyl-2,3,4,7,8,9,10,11,12,13,14,15,16,17-tetradecahydro-1H-cyclopenta[a]phenanthren-17-yl)-1-(3-(hydroxymethyl)-3-methylazetidin-1-yl)pentan-1-one], the EC50 (LXRβ) is reported as > 10000 nM and the IC50 (SREBP-2) is reported as < 250 nM.
